Reference: patent publication US9833497B2, “Human originated EGF domain proteins and use of the same” (CHENGDU SOURCEBIO LIMITED-LIABILITY COMPANY, priority 2013, dated 2017)

Tests used:
Assay type in all cases: cell-based
E. coli DH5α = assay: Antibacterial activity: MIC and growth curve against E. coli DH5α in 96-well plate; conditions: minimal inhibitory concentration against E. coli DH5α; 96-well plate, 5×10^5 CFU/mL, 37° C., judged after 8 h
Method in brief: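 MIC taken as lowest protein level with no bacterial growth, tracked by A600 every 30 min during 37 °C, 175 rpm culture. Two-fold protein series 50-12.5 μg/mL final, triplicate wells, against 5×10^5 CFU/mL of LB-washed mid-log cells.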

E. coli BL21 = assay: MIC against Gram-negative bacteria: E. coli BL21; conditions: E. coli BL21; for MIC against E. coli BL21 / MIC (μg/mL) E. coli BL21: 5×10^5 CFU/mL
Method in brief: (§1)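 Growth inhibition by human EGF domain proteins was scored in LB liquid culture seeded at 5×10^5 CFU/mL. Protein was applied as a two-fold dilution series in triplicate, with shaking incubation at 37° C; MIC is the lowest concentration giving no growth.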

Pseudomonas aeruginosa = assay: MIC against Gram-negative bacteria: Pseudomonas aeruginosa; conditions: for MIC against P. aeruginosa / MIC (μg/mL) P. aeruginosa: 5×10^5 CFU/mL
Method in brief: as §1

Klebsiella pneumonia = assay: MIC against Gram-negative bacteria: Klebsiella pneumonia; conditions: for MIC against K. pneumonia / MIC (μg/mL) K. pneumonia: 5×10^5 CFU/mL
Method in brief: as §1

Enterobacter cloacae = assay: MIC against Gram-negative bacteria: Enterobacter cloacae; conditions: for MIC against E. cloacae / MIC (μg/mL) E. cloacae: 5×10^5 CFU/mL
Method in brief: as §1

Aeromonas hydrophila = assay: MIC against Gram-negative bacteria: Aeromonas hydrophila; conditions: for MIC against A. hydrophila / MIC (μg/mL) A. hydrophila: 5×10^5 CFU/mL
Method in brief: as §1

Citrobacter diversus = assay: MIC against Gram-negative bacteria: Citrobacter diversus; conditions: for MIC against C. diversus / MIC (μg/mL) C. diversus: 5×10^5 CFU/mL
Method in brief: as §1

Moraxella catarrhalis = assay: MIC against Gram-negative bacteria: Moraxella catarrhalis; conditions: for MIC against M. catarrhalis / MIC (μg/mL) M. catarrhalis: 5×10^5 CFU/mL
Method in brief: as §1

Proteus mirabilis = assay: MIC against Gram-negative bacteria: Proteus mirabilis; conditions: for MIC against P. mirabilis / MIC (μg/mL) P. mirabilis: 5×10^5 CFU/mL
Method in brief: as §1

Proteus vulgaris = assay: MIC against Gram-negative bacteria: Proteus vulgaris; conditions: for MIC against P. vulgaris / MIC (μg/mL) P. vulgaris: 5×10^5 CFU/mL
Method in brief: as §1

Serratia marcescens = assay: MIC against Gram-negative bacteria: Serratia marcescens; conditions: for MIC against S. marcescens / MIC (μg/mL) S. marcescens: 5×10^5 CFU/mL
Method in brief: as §1

[1] = P. aeruginosa, 10 h cultivation at 37° C.
[2] = K. pneumonia, 10 h cultivation at 37° C.
[3] = E. cloacae, 10 h cultivation at 37° C.
[4] = A. hydrophila, 10 h cultivation at 37° C.
[5] = C. diversus, 10 h cultivation at 37° C.
[6] = M. catarrhalis, 10 h cultivation at 37° C.
[7] = P. mirabilis, 10 h cultivation at 37° C.
[8] = P. vulgaris, 10 h cultivation at 37° C.
[9] = S. marcescens, 10 h cultivation at 37° C.
[10] = Pseudomonas aeruginosa, 96-well plate, 37° C., 10 h
[11] = Klebsiella pneumonia, 96-well plate, 37° C., 10 h
[12] = Enterobacter cloacae, 96-well plate, 37° C., 10 h
[13] = Aeromonas hydrophila, 96-well plate, 37° C., 10 h
[14] = Citrobacter diversus, 96-well plate, 37° C., 10 h
[15] = Moraxella catarrhalis, 96-well plate, 37° C., 10 h
[16] = Proteus mirabilis, 96-well plate, 37° C., 10 h
[17] = Proteus vulgaris, 96-well plate, 37° C., 10 h
[18] = Serratia marcescens, 96-well plate, 37° C., 10 h

## PRT1368 (EKRCPGDCSGHGFCDTGECYCEEGFTGLDCA; listed as Homo sapiens)
E. coli DH5α
  MIC: 12.5 µg/mL
E. coli BL21; 10 h cultivation at 37° C.
  MIC against E. coli BL21: 25 µg/mL
Pseudomonas aeruginosa; Pseudomonas aeruginosa, 10 h cultivation at 37° C.
  MIC against P. aeruginosa: 12.5 µg/mL
Klebsiella pneumonia; Klebsiella pneumonia, 10 h cultivation at 37° C.
  MIC against K. pneumonia: 25 µg/mL
Enterobacter cloacae; Enterobacter cloacae, 10 h cultivation at 37° C.
  MIC against E. cloacae: 12.5 µg/mL
Aeromonas hydrophila; Aeromonas hydrophila, 10 h cultivation at 37° C.
  MIC against A. hydrophila: 25 µg/mL
Citrobacter diversus; Citrobacter diversus, 10 h cultivation at 37° C.
  MIC against C. diversus: 12.5 µg/mL
Moraxella catarrhalis; Moraxella catarrhalis, 10 h cultivation at 37° C.
  MIC against M. catarrhalis: 12.5 µg/mL
Proteus mirabilis; Proteus mirabilis, 10 h cultivation at 37° C.
  MIC against P. mirabilis: 12.5 µg/mL
Proteus vulgaris; Proteus vulgaris, 10 h cultivation at 37° C.
  MIC against P. vulgaris: 12.5 µg/mL
Serratia marcescens; Serratia marcescens, 10 h cultivation at 37° C.
  MIC against S. marcescens: 12.5 µg/mL

## PRT758 (RVDHCAQQDHGCEQLCLNTEDSFVCQCSEGFLINEDLKTCS; listed as Homo sapiens)
E. coli DH5α
  MIC: 12.5 µg/mL
E. coli BL21; 10 h cultivation at 37° C.
  MIC (μg/mL) E. coli BL21: 25 µg/mL
Pseudomonas aeruginosa; [1]
  MIC (μg/mL) P. aeruginosa: 50 µg/mL
Klebsiella pneumonia; [2]
  MIC (μg/mL) K. pneumonia: 50 µg/mL
Enterobacter cloacae; [3]
  MIC (μg/mL) E. cloacae: 25 µg/mL
Aeromonas hydrophila; [4]
  MIC (μg/mL) A. hydrophila: 50 µg/mL
Citrobacter diversus; [5]
  MIC (μg/mL) C. diversus: 25 µg/mL
Moraxella catarrhalis; [6]
  MIC (μg/mL) M. catarrhalis: 12.5 µg/mL
Proteus mirabilis; [7]
  MIC (μg/mL) P. mirabilis: 25 µg/mL
Proteus vulgaris; [8]
  MIC (μg/mL) P. vulgaris: 12.5 µg/mL
Serratia marcescens; [9]
  MIC (μg/mL) S. marcescens: 12.5 µg/mL

## PRT1298 (PINTCIQNPCQHGGTCHLSDSHKDGFSCSCPLGFEGQRCE; listed as Homo sapiens)
E. coli DH5α
  MIC: 12.5 µg/mL
E. coli BL21; 96-well plate, 37° C., 10 h
  MIC against E. coli BL21: 50 µg/mL
Pseudomonas aeruginosa; [10]
  MIC against P. aeruginosa: 12.5 µg/mL
Klebsiella pneumonia; [11]
  MIC against K. pneumonia: 50 µg/mL
Enterobacter cloacae; [12]
  MIC against E. cloacae: 25 µg/mL
Aeromonas hydrophila; [13]
  MIC against A. hydrophila: 12.5 µg/mL
Citrobacter diversus; [14]
  MIC against C. diversus: 50 µg/mL
Moraxella catarrhalis; [15]
  MIC against M. catarrhalis: 12.5 µg/mL
Proteus mirabilis; [16]
  MIC against P. mirabilis: 50 µg/mL
Proteus vulgaris; [17]
  MIC against P. vulgaris: 12.5 µg/mL
Serratia marcescens; [18]
  MIC against S. marcescens: 25 µg/mL

## PRT81 (TCGPCNCDVSKGFDPDCNKTSGECHCKENHYRPPGSPTCL; listed as Homo sapiens)
E. coli DH5α
  MIC: 12.5 µg/mL
E. coli BL21; 96-well plate, 37° C., 10 h
  MIC (μg/mL) E. coli BL21: 12.5 µg/mL
Pseudomonas aeruginosa; [10]
  MIC (μg/mL) P. aeruginosa: 12.5 µg/mL
Klebsiella pneumonia; [11]
  MIC (μg/mL) K. pneumonia: 25 µg/mL
Enterobacter cloacae; [12]
  MIC (μg/mL) E. cloacae: 12.5 µg/mL
Aeromonas hydrophila; [13]
  MIC (μg/mL) A. hydrophila: 25 µg/mL
Citrobacter diversus; [14]
  MIC (μg/mL) C. diversus: 12.5 µg/mL
Moraxella catarrhalis; [15]
  MIC (μg/mL) M. catarrhalis: 50 µg/mL
Proteus mirabilis; [16]
  MIC (μg/mL) P. mirabilis: 12.5 µg/mL
Proteus vulgaris; [17]
  MIC (μg/mL) P. vulgaris: 25 µg/mL
Serratia marcescens; [18]
  MIC (μg/mL) S. marcescens: 50 µg/mL

## PRT1039 (SSGICDEASCIHGGTCTAIKADSYICLCPLGFKGRHCE; listed as Homo sapiens)
E. coli DH5α
  MIC: 50 µg/mL
E. coli BL21; 10 h cultivation at 37° C.
  MIC: 50 µg/mL
Pseudomonas aeruginosa; [1]
  MIC: 50 µg/mL
Klebsiella pneumonia; [2]
  MIC: 12.5 µg/mL
Enterobacter cloacae; [3]
  MIC: 25 µg/mL
Aeromonas hydrophila; [4]
  MIC: 50 µg/mL
Citrobacter diversus; [5]
  MIC: 50 µg/mL
Moraxella catarrhalis; [6]
  MIC: 12.5 µg/mL
Proteus mirabilis; [7]
  MIC: 50 µg/mL
Proteus vulgaris; [8]
  MIC: 12.5 µg/mL
Serratia marcescens; [9]
  MIC: 50 µg/mL
